This is an account of results in patent US20090275099A1 (priority 2004, published 2009).

Data set [1] concerns ATP synthesis. The data set is described as follows: cellular ATP synthesis (FIG. 15). It is filed as cell-based. How it is done: The following four compounds were exposed to cells, and ATP synthesis measured: […]
Data set [2] has as its target T1, human OSCP (Homo sapiens, UniProt P48047).
T1 construct: made in house; host or cells: E. coli
Put plainly: OSCP binding by quenching of intrinsic protein fluorescence. From the text: To determine if Bz-423 indeed binds to the OSCP and the affinity of the interaction, human OSCP was overexpressed in E. coli. […] Bz-423 is the only known inhibitor of the ATPase that functions through binding to the OSCP.

Data set [3] has as its system panel of cells in Table 7. Put plainly: antiproliferation of Bz-Cl against the panel of cells, 3 d. It is filed as cell-based. The settings on record: after 3 d.
The subject of data set [4] is Ramos cells. Put plainly: cell culture cytotoxicity assays. It is filed as cell-based, human. How it is done: Like most 1,4-benzodiazepines, Bz-423 binds strongly to bovine serum albumin (BSA), which reduces the effective concentration of drug free in solution. For example, in tissue culture media containing 10% (v/v) fetal bovine serum (FBS), ca. 99% of the drug is bound to BSA. Therefore, cell culture cytotoxicity assays are conducted in media with 2% FBS to reduce binding to BSA and increase the free [Bz-423]. Under these conditions, the dose response-curve is quite sharp such that there is a limited concentration range at which Bz-423 is only partly effective. Since some benzodiazepines are known to have anti-proliferative properties, the effect of Bz-423 at concentrations <ED50 were carefully analyzed and observed that in addition to inducing apoptosis, Bz-423 prevented cell growth after 3 d in culture. In these low serum conditions, the cytotoxic and anti-proliferative effects overlapped making it difficult to study each effect independently. […] While higher amounts of drug may also block proliferation, it caused apoptosis well before the effects on proliferation could be observed.
To confirm the decrease in cell number relative to control cells after 3 d of treatment is due to decreased proliferation and not cell death balanced by proliferation, in addition to cell counting, cell divisions were studied. PKH-67 is a fluorescent probe that binds irreversibly to cell membranes and upon cell division is partitioned equally between the daughter cells, making it possible to quantify cell division by flow cytometry. Ramos cells stained with PKH67 and treated with Bz-423 had fewer cell divisions at sub-cytotoxic concentrations which confirmed that the decrease in cell number was due to anti-proliferative affects and not cell death. To determine if Bz-423 induced anti-proliferation was specific to Ramos cells, cell counting and cell cycle experiments were done in other B cell lines and cell lines derived from solid tumors.

Data set [5] concerns ornithine decarboxylase (ODC). Put plainly: ODC activity in treated cells (conversion of 3H-ornithine to putrescine). It is filed as cell-based, human. The settings on record: cells treated for 4 h. How it is done:
In these experiments, the conversion of ornithine to putrescine was quantified using ^3H-ornithine. For comparisons, control cells were treated with vehicle control or difluoromethyl ornithine (DFMO), a potent inhibitor of ornithine decarboxylase (like Bz-423, DFMO is a potent anti-proliferative agent). […] The reduction in ODC activity was paralleled by a decrease in ODC protein levels measured under the same conditions.
As described above, Bz-423 induced apoptosis was signaled by an ROS response that arose from MRC complex III as a result of the state 3 to 4 transition. It was next sought to determine if the ROS response, critical for apoptosis, also mediated these effects on ODC. If the ROS was required for the decrease in ODC activity, it would likewise be implicated as potentially part of the anti-proliferative response to Bz-423. To test this, Ramos cells were treated with Bz-423, DFMO, or vehicle control for 4 h. In parallel, a second group of cells was pre-incubated with MnTBAP to limit the ROS and then cultured with Bz-423, DFMO, and vehicle control.

Data set [6] addresses T2, mitochondrial F1F0-ATPase (Bos taurus, UniProt P13621+P32876). The data set is described as follows: biochemical. Conditions: hydrolysis; for Ki: oligomycin. Also on record: species or system bovine.
For data set [7] the following is noted: rodents, two daily doses; cited from earlier work.
In data set [8] the target is F1F0-ATPase (Bos taurus, UniProt P13621+P32876). The data set is described as follows: off-rate measurements, recovery of ATP synthesis of SMPs after dilution. It is filed as biochemical, bovine. How it is done:
Inhibition of Na,K-ATPases with oligomycin is time-dependent and results from a slow rate of dissociation from the enzyme (0.05 s^−1) (see, e.g., Esmann, M. (1991) Biochim. Biophys. Acta 1064, 31-36; herein incorporated by reference in its entirety). Since time-dependent inhibition can have profound effects on the function of the F1F0-ATPase, the off-rate of Bz-423 and oligomycin during ATP synthesis was examined. […] Inhibited SMP suspensions were diluted into buffer and activity was measured over time. Enzymatic activity of the SMPs incubated with Bz-423 had recovered to 90% of control at 10 s, indicating rapid dissociation (see, FIG. 18). In contrast, the activity of the enzyme incubated with oligomycin was only 54% of the uninhibited activity at 10 s, and increased for several minutes after dilution (see, FIG. 18). The time-dependence of the recovery of activity fit to a single exponential yielding an apparent dissociation rate constant for Bz-423>0.3 s^−1. However, dissociation of oligomycin was complex and a portion of the inhibitor dissociated at least 10-fold slower, consistent with a tight-binding, slow-dissociating inhibitor (see, e.g., Morrison, J. F., and Walsh, C. T. (1988) Adv. Enzymol. Relat. Areas Mol. Biol. 61, 201-301; herein incorporated by reference in its entirety). Presumably, the constraints of a high-affinity inhibitor dissociating from the membrane embedded proton channel presented a significant barrier for dissociation resulting in a slow off-rate.
Off-rate measurements. Rate of inhibition of ATP synthesis was measured as described above with the following changes. A 20 μL aliquot of SMPs (1 mg mL^−1) in synthesis buffer (with 10 mM K2HPO4) was added to each well of a 96-well plate containing 2.5 μL of 100× drug (14 μM Bz-423 and 35 nM oligomycin, final) or DMSO vehicle control. The drug was diluted out by adding 200 μL of synthesis buffer to each well. Substratecoupling mixture (25 μL with 1 mM ADP) was added to each well at the indicated time point and the rate of NADP^+ reduction was monitored over time.

Data set [9] has as its target T2, mitochondrial F1F0-ATPase. The data set is described as follows: biochemical. Further details: species or system bovine. Conditions: synthesis; for Ki: oligomycin.
The target of data set [10] is F1F0-ATPase (Homo sapiens, UniProt P05496+P48047). Conditions: read-out: IC50 for oligomycin; cited from earlier work.
For data set [11], the system named is Na,K-ATPases. Conditions: cited from earlier work.
The subject of data set [12] is isolated rat liver mitochondria. The data set is described as follows: ROS production in isolated mitochondria (DCF oxidation). The settings on record: aerobic conditions supporting state 3 respiration, slope versus control. The procedure: Male Long Evans rats are starved overnight and sacrificed by decapitation. Liver samples are homogenized in ice cold buffer A (250 mM sucrose, 10 mM Tris, 0.1 mM EGTA, pH 7.4), and nuclei and cellular debris are pelleted (10 min, 830 g, 4° C.). Mitochondria are collected by centrifugation (10 min, 15,000 g, 4° C.), and the supernatant is collected as the S15 fraction. The mitochondrial pellet is washed three times with buffer B (250 mM sucrose, 10 mM Tris, pH 7.4), and re-suspended in buffer B at 20-30 mg/mL. Mitochondria are diluted (0.5 mg/mL) in buffer C (200 mM sucrose, 10 mM Tris, pH 7.4, 1 mM KH2PO4, 10 μM EGTA, 2.5 μM rotenone, 5 mM succinate) containing 2′,7′-dichlorodihydrofluorescin diacetate (DCFH-DA, 1 μM). For state 3 measurements, ADP (2 mM) is included in the buffer, and prior to the addition of Bz-423, mitochondria are allowed to charge for 2 min. To induce state 4, oligomycin (10 μM) is added to buffer C. […] To detect effects on O2^− and delta ψm, mitochondria are incubated for 15 min at 37° C. in buffer C with vehicle, Bz-423, or CCCP containing DHE (5 μM) or DIOC6(3) (20 nM), and aliquots are removed for analysis by fluorescence microscopy.
O2^− production by Bz-423 may result from binding to a protein within mitochondria or a target in another compartment that signals mitochondria to generate ROS. […]

Entries after “also recorded” stand apart in the source; their conditions may differ. Like-named read-outs stand apart in the source and are kept apart here.

T1 sequence (P48047 24-213): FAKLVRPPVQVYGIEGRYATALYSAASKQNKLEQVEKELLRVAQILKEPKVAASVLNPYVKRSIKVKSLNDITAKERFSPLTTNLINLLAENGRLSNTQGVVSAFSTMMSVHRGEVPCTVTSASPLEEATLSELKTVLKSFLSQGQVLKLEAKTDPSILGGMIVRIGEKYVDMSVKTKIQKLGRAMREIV

`CN1C(=O)C(c2ccccc2)NC(c2ccc(O)cc2)c2cc(Cl)ccc21` (stereo not drawn): in [1], the “inhibition of cellular ATP synthesis” value is reported as “did inhibit ATP synthesis”.

Turning to `CN1C(=O)C(Cc2ccc3ccccc3c2)N=C(c2ccc(Cl)cc2)c2cc(Cl)ccc21` (stereo not drawn) [Bz-Cl], in data set [2], the dissociation constant (Kd) is ~5 µM. In data set [3], the “effect on proliferation compared with Bz-423” value is listed as “reduced proliferation to a similar extent as Bz-423”. Also, the “decrease of cytotoxic activity compared to Bz-423” value in [4] is ~80%. Besides, the “effect on ODC activity” value in [5] is listed as “inhibited ODC activity”.

As to `CC[C@H]1/C=C/C=C/C[C@@H](C)[C@H](O)[C@@](C)(O)C(=O)[C@@H](C)[C@H](O)[C@@H](C)C(=O)[C@@H](C)[C@H](O)[C@@H](C)/C=C/C(=O)O[C@@H]2[C@H](C)[C@H](CC1)O[C@]1(CC[C@H](C)[C@H](C[C@@H](C)O)O1)[C@H]2C` [oligomycin, reference compound], the Mechanism of inhibition result is reported as “noncompetitive inhibitor; also recorded: Non-competitive” in data set [6] and “mixed inhibitor” in data set [9]. Further, the figures for the “nE, cooperativity factor for competitive inhibition constant” value in data set [6] and in data set [9] were 1.1 ± 0.3 and 3.6 ± 0.5, respectively. In addition, the “nES, cooperativity factor for uncompetitive inhibition constant” value in data set [6] is on record as 1.2 ± 0.1; in data set [9], 1.6 ± 0.3. In addition, the Ki turned out to be 0.011 ± 0.003 µM in data set [6] (read-out: Ki (E)), 0.013 ± 0.001 µM in data set [6] (read-out: Ki (ES)), 0.0105 ± 0.0009 µM in data set [9] (Ki (E)) and 0.012 ± 0.001 µM in [9] (Ki (ES)). Besides, the “K∞” value was found to be 0.12 ± 0.02 mM in data set [6] (three-dimensional fit) and 0.12 ± 0.01 mM in [9] (three-dimensional fit). The Vmax in data set [6] (three-dimensional fit) stood at 0.77 ± 0.03 µmol/min/mg; in data set [9] (three-dimensional fit) it was 0.089 ± 0.003 µmol/min/mg. In data set [7], the LD50 for oligomycin is 0.5 mg/kg. Further, in [8], the “slower dissociation of a portion of the inhibitor” value was “at least 10 fold”. Moreover, the “reduction of F1F0-ATPase activity at the concentration produced after dilution” value in data set [8] (1.4 μM Bz-423, 3.5 nM oligomycin) is given as 15%. Also, the “ATP synthesis activity relative to that in the absence of inhibitor” value in data set [8] (14 μM Bz-423 or 35 nM oligomycin) was 14%. Besides, the “enzymatic activity recovered after dilution, % of control” value in [8] (at 10 s after dilution) stood at 54%. Besides, the IC50 in data set [10] was 0.01 µM. In addition, the “rate of dissociation from the enzyme” value in data set [11] was 0.05 s⁻¹.

On to antimycin A, for which, in data set [12], the “increase of the rate of ROS production” value is reported as “nearly two-fold”.

For orientation: Kd means the concentration at which binding is half-saturated. Read a high Kd as weaker binding. Usually Ki stands for the equilibrium dissociation constant of an inhibitor or competing ligand from its target. As usually defined, the Vmax is the top rate of the reaction or transport when substrate is in excess. What is called IC50 is the midpoint of a concentration-inhibition curve.
